# Reference: patent US12195427B2, “MASP-2 inhibitors and methods of use” (priority 2018, dated 2025)
# Target: MASP-2 CCP2-SP (Homo sapiens (Human), UniProt O00187)
# Experiment: MASP-2 co-crystallization, X-ray crystallography and structure analysis (H-bonds, van der Waals contacts);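 as to Ligand-pharmacophore element distance, pharmacophore element C2: distance from averaged pharmacophore element to bound ligand; missing value means element absent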;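 as to Ligand-pharmacophore element distance, pharmacophore element C3: distance from averaged pharmacophore element to bound ligand; missing value means element absent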;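 as to Ligand-pharmacophore element distance, pharmacophore element C4: distance from averaged pharmacophore element to bound ligand; missing value means element absent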;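 as to Ligand-pharmacophore element distance, pharmacophore element C5: distance from averaged pharmacophore element to bound ligand; missing value means element absent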
# Design: van der Waals contact distance, MASP-2 HIS 483 atom CD2 / van der Waals contact distance, MASP-2 HIS 483 atom NE2 / van der Waals contact distance, SER 654 C to compound atom / van der Waals contact distance, SER 654 O to compound atom / van der Waals contact distance, TRP 655 C to compound atom / van der Waals contact distance, MASP-2 GLY 528 atom CA / van der Waals contact distance TRP 655 atom CZ3 / van der Waals contact distance TRP 655 atom N / van der Waals contact distance TRP 655 atom CE3 / van der Waals contact distance GLY 656 atom C / van der Waals contact distance GLY 656 atom CA / van der Waals contact distance GLY 656 atom O / van der Waals contact distance, MASP-2 TYR 607 atom CD1 / van der Waals contact distance, MASP-2 PRO 606 atom O / d(C3,CA1) / d(CA1,N1)2 / d(H4,O1) / d(H4,O2) / d(O1,O2) / d(CA1,O2) / d(CA6,O1) / d(CA6,O2) / d(CA1,C5) / d(O2,H3) / d(N2,C2) / d(CA5,N2) / d(N2,C4) / d(N2,C6) / d(N2,CA3) / d(N2,O3) / d(O4,H2): unit not given beside the values
# Details: for Ligand-pharmacophore element distance, pharmacophore element C2 / Ligand-pharmacophore element distance, pharmacophore element C3 / Ligand-pharmacophore element distance, pharmacophore element C4 / Ligand-pharmacophore element distance, pharmacophore element C5 / Ligand-pharmacophore element distance, pharmacophore element C6 / Ligand-pharmacophore element distance, pharmacophore element C7 / Ligand-pharmacophore element distance, pharmacophore element CA1 / Ligand-pharmacophore element distance, pharmacophore element CA2 / Ligand-pharmacophore element distance, pharmacophore element CA3 / Ligand-pharmacophore element distance, pharmacophore element CA4 / Ligand-pharmacophore element distance, pharmacophore element CA5 / Ligand-pharmacophore element distance, pharmacophore element CA6: Table A4-1; for d(CA1,N1) / d(CA1,O1) / d(CA1,O2) / d(H4,O1) / d(H4,O2) / d(O1,O2): Table A5-1 pharmacophore: distance between elements, S2/S1 region; for a(CA1, O1, O2) / a(O1, O2, H4) / A(N1, CA1, O1) a): Table A6-1 pharmacophore angle; for A(N1, CA1, O1) a): all compounds with protonatable center N1 except Methyl-amino-pyridine; for Pharmacophore torsion angle a(H4, O1, O2, H3) / Pharmacophore torsion angle a(H4, O1, O2, N2) / Pharmacophore torsion angle a(N1, CA1, O2, H4) / Pharmacophore torsion angle a(O1, H4, O2, CA1) / Pharmacophore torsion angle a(O1, O2, N2, C2): Table A7-1; for Pharmacophore protein distance to MET_658 (first MET_658 column) / Pharmacophore protein distance to MET_658 (second MET_658 column) / Pharmacophore protein distance to GLY_528 / Pharmacophore protein distance to PHE_529 / Pharmacophore protein distance to PRO_608 / Pharmacophore protein distance to SER_611 / Pharmacophore protein distance to TRP_655: Table A8-6, nearest protein atom in cell to the left; for Pharmacophore protein distance to MET_658 (first MET_658 column): 6th residue column; for Pharmacophore protein distance to MET_658 (second MET_658 column): 9th residue column; for Pharmacophore protein distance to TRP_655: pharmacophore elements C6, CA3, O3, H1
# Method in brief: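 Contacts and H-bonds come from partially refined soaked-crystal structures of recombinant human CCP2-SP made in E. coli, solved by molecular replacement against 1Q3X fragments. Where several ligand poses appeared, only one was analysed; listed nonbonded contacts may include possible H-bond pairings.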
# [1] = Table A5-2 pharmacophore distance, S3/S4 region
# [2] = between pharmacophore elements of the bound compound
# [3] = Table A7-2, between pharmacophore elements of the bound compound
# MASP-2 CCP2-SP, sequence (O00187 445-686): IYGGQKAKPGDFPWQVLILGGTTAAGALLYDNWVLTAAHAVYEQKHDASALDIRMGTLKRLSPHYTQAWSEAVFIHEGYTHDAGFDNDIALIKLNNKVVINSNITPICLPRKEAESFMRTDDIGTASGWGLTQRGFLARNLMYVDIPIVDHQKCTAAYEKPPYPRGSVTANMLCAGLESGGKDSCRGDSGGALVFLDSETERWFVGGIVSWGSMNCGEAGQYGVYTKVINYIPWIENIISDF
# MASP-2 CCP2-SP, sequence (O00187 364-432 partner): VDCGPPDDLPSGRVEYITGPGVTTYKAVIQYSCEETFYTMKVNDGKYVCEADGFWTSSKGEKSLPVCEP
smiles,measurement,setting,value
C[C@H](NC(=O)[C@@H](CCc1ccccc1)NCCCc1ccc(O)cc1)C(=O)NCc1ccc(C(=N)N)cc1.Cl.Cl [1145_B],"Ligand-pharmacophore element distance, pharmacophore element C2",,0
same,"Ligand-pharmacophore element distance, pharmacophore element C3",,0
same,"Ligand-pharmacophore element distance, pharmacophore element C4",,0
same,"Ligand-pharmacophore element distance, pharmacophore element C5",,0
same,"Ligand-pharmacophore element distance, pharmacophore element C6",,0
same,"Ligand-pharmacophore element distance, pharmacophore element C7",,0
same,"Ligand-pharmacophore element distance, pharmacophore element CA1",,0.47
same,"Ligand-pharmacophore element distance, pharmacophore element CA2",,0.41
same,"Ligand-pharmacophore element distance, pharmacophore element CA3",,1.22
same,"Ligand-pharmacophore element distance, pharmacophore element CA4",,0
same,"Ligand-pharmacophore element distance, pharmacophore element CA5",,0
same,"Ligand-pharmacophore element distance, pharmacophore element CA6",,0
same,"d(CA1,N1)",,3.54
same,"d(CA1,O1)",,4.42
same,"d(CA1,O2)",,4.42
same,"d(H4,O1)",,4.89
same,"d(H4,O2)",,4.48
same,"d(O1,O2)",,3.28
same,"d(N2,CA2)",[1],5.91
same,"d(N2,CA3)",[1],5.59
same,"d(N2,H1)",[1],8.68
same,"d(N2,O3)",[1],7.97
same,"d(O2,H3)",[1],5.36
same,"d(O2,N2)",[1],2.77
same,"a(CA1, O1, O2)",,111.73
same,"a(O1, O2, H4)",,139.31
same,"A(N1, CA1, O1) a)",,162.28
same,"a(O1, O2, H3)",Table A6-2 pharmacophore angle,150.25
same,"a(O1, O2, N2)",Table A6-2 pharmacophore angle,136.24
same,"a(O2, N2, CA2)",Table A6-2 pharmacophore angle,153.28
same,"a(O2, N2, CA3)",Table A6-2 pharmacophore angle,161.48
same,"a(O2, N2, H1)",Table A6-2 pharmacophore angle,168.66
same,"a(O2, N2, O3)",Table A6-2 pharmacophore angle,168.41
same,"Pharmacophore torsion angle a(H4, O1, O2, H3)",[2],48.71
same,"Pharmacophore torsion angle a(H4, O1, O2, N2)",[2],124.15
same,"Pharmacophore torsion angle a(N1, CA1, O2, H4)",[2],−128.41
same,"Pharmacophore torsion angle a(O1, H4, O2, CA1)",[2],−59.90
same,"Pharmacophore torsion angle a(O1, O2, N2, CA2)",[3],140.87
same,"Pharmacophore torsion angle a(O1, O2, N2, CA3)",[3],−15.65
same,"Pharmacophore torsion angle a(O1, O2, N2, H1)",[3],−15.97
same,"Pharmacophore torsion angle a(O1, O2, N2, O3)",[3],−10.98
CC(NC(=O)C(CCc1ccccc1)NCc1ccc(C(=O)N2CCOCC2)cc1)C(=O)NCc1ccc(C(=N)N)cc1.Cl.Cl (stereo not shown) [1153_A],"Ligand-pharmacophore element distance, pharmacophore element C2",,8.69
same,"Ligand-pharmacophore element distance, pharmacophore element C3",,0
same,"Ligand-pharmacophore element distance, pharmacophore element C4",,0
same,"Ligand-pharmacophore element distance, pharmacophore element C5",,0
same,"Ligand-pharmacophore element distance, pharmacophore element C6",,0
same,"Ligand-pharmacophore element distance, pharmacophore element C7",,0
same,"Ligand-pharmacophore element distance, pharmacophore element CA1",,0.43
same,"Ligand-pharmacophore element distance, pharmacophore element CA2",,0.34
same,"Ligand-pharmacophore element distance, pharmacophore element CA3",,4.19
same,"Ligand-pharmacophore element distance, pharmacophore element CA4",,0
same,"Ligand-pharmacophore element distance, pharmacophore element CA5",,0
same,"Ligand-pharmacophore element distance, pharmacophore element CA6",,0
same,"d(CA1,N1)",,3.54
same,"d(CA1,O1)",,5.79
same,"d(CA1,O2)",,4.38
same,"d(H4,O1)",,6.25
same,"d(H4,O2)",,4.36
same,"d(O1,O2)",,4.62
same,"d(N2,C2)",[1],8.34
same,"d(N2,CA2)",[1],6.18
same,"d(N2,CA3)",[1],3.78
same,"d(N2,O3)",[1],7.78
same,"d(O2,H3)",[1],2.71
same,"d(O2,N2)",[1],2.88
same,"a(CA1, O1, O2)",,99.83
same,"a(O1, O2, H4)",,132.39
same,"A(N1, CA1, O1) a)",,174.13
same,"a(O1, O2, H3)",Table A6-2 pharmacophore angle,138.79
same,"a(O1, O2, N2)",Table A6-2 pharmacophore angle,132.96
same,"a(O2, N2, C2)",Table A6-2 pharmacophore angle,168.69
same,"a(O2, N2, CA2)",Table A6-2 pharmacophore angle,152.46
same,"a(O2, N2, CA3)",Table A6-2 pharmacophore angle,157.4
same,"a(O2, N2, O3)",Table A6-2 pharmacophore angle,167.7
same,"Pharmacophore torsion angle a(H4, O1, O2, H3)",[2],86.11
same,"Pharmacophore torsion angle a(H4, O1, O2, N2)",[2],97.90
same,"Pharmacophore torsion angle a(N1, CA1, O2, H4)",[2],−11.60
same,"Pharmacophore torsion angle a(O1, H4, O2, CA1)",[2],15.20
same,"Pharmacophore torsion angle a(O1, O2, N2, C2)",[2],30.40
same,"Pharmacophore torsion angle a(O1, O2, N2, CA2)",[3],116.41
same,"Pharmacophore torsion angle a(O1, O2, N2, CA3)",[3],24.87
same,"Pharmacophore torsion angle a(O1, O2, N2, O3)",[3],43.95
same,Pharmacophore protein distance to MET_658 (first MET_658 column),,2.53
same,Pharmacophore protein distance to MET_658 (second MET_658 column),,3.26
same,Pharmacophore protein distance to GLY_528,,3.41
same,Pharmacophore protein distance to PHE_529,,3.23
same,Pharmacophore protein distance to PRO_608,,4.41
same,Pharmacophore protein distance to SER_611,,2.46
same,Pharmacophore protein distance to TRP_655,,3.42
C[C@H](NC(=O)[C@@H](CCc1ccccc1)NCc1ccc(C(=O)N2CCOCC2)cc1)C(=O)NCc1ccc(C(=N)N)cc1.Cl.Cl [1153_B],"Ligand-pharmacophore element distance, pharmacophore element C2",,10.14
same,"Ligand-pharmacophore element distance, pharmacophore element C3",,0
same,"Ligand-pharmacophore element distance, pharmacophore element C4",,0
same,"Ligand-pharmacophore element distance, pharmacophore element C5",,0
same,"Ligand-pharmacophore element distance, pharmacophore element C6",,0
same,"Ligand-pharmacophore element distance, pharmacophore element C7",,0
same,"Ligand-pharmacophore element distance, pharmacophore element CA1",,0.39
same,"Ligand-pharmacophore element distance, pharmacophore element CA2",,0.58
same,"Ligand-pharmacophore element distance, pharmacophore element CA3",,0
same,"Ligand-pharmacophore element distance, pharmacophore element CA4",,0
same,"Ligand-pharmacophore element distance, pharmacophore element CA5",,6.17
same,"Ligand-pharmacophore element distance, pharmacophore element CA6",,0
same,"d(CA1,N1)",,3.54
same,"d(CA1,O1)",,5.51
same,"d(CA1,O2)",,8.18
same,"d(H4,O1)",,5.77
same,"d(H4,O2)",,7.90
same,"d(O1,O2)",,9.57
same,"d(CA5,N2)",[1],3.75
same,"d(N2,C2)",[1],8.53
same,"d(N2,CA2)",[1],5.06
same,"d(N2,O3)",[1],9.72
same,"d(O2,H3)",[1],3.10
same,"d(O2,N2)",[1],2.99
same,"a(CA1, O1, O2)",,144.91
same,"a(O1, O2, H4)",,92.62
same,"A(N1, CA1, O1) a)",,171.50
same,"a(O1, O2, H3)",Table A6-2 pharmacophore angle,25.95
same,"a(O1, O2, N2)",Table A6-2 pharmacophore angle,44.76
same,"a(O2, N2, C2)",Table A6-2 pharmacophore angle,163.28
same,"a(O2, N2, CA2)",Table A6-2 pharmacophore angle,150.51
same,"a(O2, N2, O3)",Table A6-2 pharmacophore angle,165.3
same,"Pharmacophore torsion angle a(H4, O1, O2, H3)",[2],70.64
same,"Pharmacophore torsion angle a(H4, O1, O2, N2)",[2],133.70
same,"Pharmacophore torsion angle a(N1, CA1, O2, H4)",[2],56.56
same,"Pharmacophore torsion angle a(O1, H4, O2, CA1)",[2],23.08
same,"Pharmacophore torsion angle a(O1, O2, N2, C2)",[2],−139.94
same,"Pharmacophore torsion angle a(O1, O2, N2, CA2)",[3],76.90
same,"Pharmacophore torsion angle a(O1, O2, N2, CA5)",[3],−161.98
same,"Pharmacophore torsion angle a(O1, O2, N2, O3)",[3],−144.09
same,Pharmacophore protein distance to MET_658 (first MET_658 column),,2.53
same,Pharmacophore protein distance to MET_658 (second MET_658 column),,3.26
same,Pharmacophore protein distance to GLY_528,,3.41
same,Pharmacophore protein distance to PHE_529,,3.23
same,Pharmacophore protein distance to PRO_608,,4.41
same,Pharmacophore protein distance to SER_611,,2.46
same,Pharmacophore protein distance to TRP_655,,3.42
